Test results from BindingDB's records for doi:10.1016/j.bmc.2013.10.018 (Baylor College of Medicine, 2014).

How the values were obtained:
[1] = molecular target: T1, Signal transducer and activator of transcription 3 (Homo sapiens, UniProt P40763); assay: Inhibition of Stat3 phosphorylation in human MDA-MB-468 cells by Western blotting analysis in normoxia condition
[2] = molecular target: T1, Signal transducer and activator of transcription 3; assay: Inhibition of Stat3 phosphorylation in human PANC1 cells by Western blotting analysis in normoxia condition
[3] = molecular target: T1, Signal transducer and activator of transcription 3; assay: Inhibition of Stat3 phosphorylation in human MDA-MB-468 cells by Western blotting analysis in hypoxia condition
[4] = molecular target: T2, Hypoxia-inducible factor 1-alpha (Homo sapiens, UniProt Q16665); assay: Inhibition of HIF-1 alpha in human OVCAR3 cells by Western blotting analysis in hypoxia condition
T2 sequence (Q16665 whole entry): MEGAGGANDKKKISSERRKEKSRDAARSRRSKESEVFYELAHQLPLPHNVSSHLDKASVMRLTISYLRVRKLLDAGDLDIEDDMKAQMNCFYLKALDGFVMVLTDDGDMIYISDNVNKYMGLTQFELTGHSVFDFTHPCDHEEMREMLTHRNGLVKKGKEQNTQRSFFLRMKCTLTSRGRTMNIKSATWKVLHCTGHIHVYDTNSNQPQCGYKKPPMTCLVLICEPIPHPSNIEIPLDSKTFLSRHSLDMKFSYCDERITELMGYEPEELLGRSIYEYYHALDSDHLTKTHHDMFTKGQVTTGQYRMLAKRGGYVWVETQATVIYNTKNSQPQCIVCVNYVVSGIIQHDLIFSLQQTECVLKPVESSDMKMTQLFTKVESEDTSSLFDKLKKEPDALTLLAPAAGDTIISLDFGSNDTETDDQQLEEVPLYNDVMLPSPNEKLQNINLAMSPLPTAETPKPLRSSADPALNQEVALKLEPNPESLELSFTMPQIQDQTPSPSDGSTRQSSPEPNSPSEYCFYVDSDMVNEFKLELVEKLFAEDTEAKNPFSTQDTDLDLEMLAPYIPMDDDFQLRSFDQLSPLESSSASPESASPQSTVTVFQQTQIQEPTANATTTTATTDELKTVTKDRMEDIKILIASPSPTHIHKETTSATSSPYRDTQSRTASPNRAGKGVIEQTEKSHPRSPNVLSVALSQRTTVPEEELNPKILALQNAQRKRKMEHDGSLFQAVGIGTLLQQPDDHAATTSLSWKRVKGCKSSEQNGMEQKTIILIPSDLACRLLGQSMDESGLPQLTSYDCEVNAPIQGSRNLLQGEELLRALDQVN

[5] = molecular target: T2, Hypoxia-inducible factor 1-alpha; assay: Inhibition of HIF-1 alpha in human MDA-MB-468 cells by Western blotting analysis in hypoxia condition
[6] = molecular target: T1, Signal transducer and activator of transcription 3; assay: Inhibition of Stat3 phosphorylation in human OVCAR3 cells by Western blotting analysis in normoxia condition
[7] = molecular target: T1, Signal transducer and activator of transcription 3; assay: Inhibition of Stat3 phosphorylation in human OVCAR3 cells by Western blotting analysis in hypoxia condition
[8] = molecular target: T1, Signal transducer and activator of transcription 3; assay: Inhibition of Stat3 phosphorylation in human PANC1 cells by Western blotting analysis in hypoxia condition
[9] = molecular target: T1, Signal transducer and activator of transcription 3; assay: Inhibition of Stat3 phosphorylation in human MDA-MB-231 cells by Western blotting analysis in hypoxia condition
[10] = molecular target: T1, Signal transducer and activator of transcription 3; assay: Inhibition of Stat3 phosphorylation in human MDA-MB-231 cells by Western blotting analysis in normoxia condition
[11] = molecular target: T2, Hypoxia-inducible factor 1-alpha; assay: Inhibition of HIF-1 alpha in human MDA-MB-231 cells by Western blotting analysis in hypoxia condition
[12] = molecular target: T2, Hypoxia-inducible factor 1-alpha; assay: Inhibition of HIF-1 alpha in human PANC1 cells by Western blotting analysis in hypoxia condition

T1 sequence (P40763 whole entry): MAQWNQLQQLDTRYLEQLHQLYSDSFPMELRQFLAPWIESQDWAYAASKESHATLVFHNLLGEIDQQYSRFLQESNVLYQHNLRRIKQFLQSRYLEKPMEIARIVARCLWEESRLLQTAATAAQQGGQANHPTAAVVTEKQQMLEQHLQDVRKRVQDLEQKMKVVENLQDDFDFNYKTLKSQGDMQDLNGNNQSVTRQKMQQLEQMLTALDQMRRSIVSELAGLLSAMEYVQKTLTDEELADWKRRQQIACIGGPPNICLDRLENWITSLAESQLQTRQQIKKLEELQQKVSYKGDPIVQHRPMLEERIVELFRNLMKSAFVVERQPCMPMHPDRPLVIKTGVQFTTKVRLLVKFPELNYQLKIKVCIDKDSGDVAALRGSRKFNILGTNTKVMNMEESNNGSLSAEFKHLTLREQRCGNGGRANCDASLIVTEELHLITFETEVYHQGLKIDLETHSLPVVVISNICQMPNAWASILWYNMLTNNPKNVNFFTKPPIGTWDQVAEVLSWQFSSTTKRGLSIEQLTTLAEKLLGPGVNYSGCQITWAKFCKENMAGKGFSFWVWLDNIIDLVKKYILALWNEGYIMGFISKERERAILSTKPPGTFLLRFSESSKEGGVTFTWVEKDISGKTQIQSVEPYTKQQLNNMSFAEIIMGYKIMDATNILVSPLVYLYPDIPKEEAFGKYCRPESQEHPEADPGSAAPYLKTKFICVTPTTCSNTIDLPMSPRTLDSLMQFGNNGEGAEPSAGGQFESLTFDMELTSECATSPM

Structure (SMILES): CN(C)CCCN1C(=O)c2ccc3c4ccc5c6c(ccc(c7ccc(c2c37)C1=O)c64)C(=O)N(CCCN(C)C)C5=O
- IC50 [1]: 4.5 µM
- IC50 [2]: 4.5 µM
- IC50 [3]: 4.5 µM
- IC50 [4]: 3 µM
- IC50 [5]: 3 µM
- IC50 [6]: 4.5 µM
- IC50 [7]: 4.5 µM
- IC50 [8]: 4.5 µM
- IC50 [9]: 4.5 µM
- IC50 [10]: 4.5 µM
- IC50 [11]: 3 µM
- IC50 [12]: 3 µM
